Target: T1, IKZF2 (Homo sapiens, UniProt Q96SW2+Q9UKS7)
T1 construct: expressed in transfected cells
Assay: HiBiT protein tagging assay, in vitro IKZF2 degradation (HEK293)
Type: cell-based
Settings: IKZF2-HiBiT reporter Flp-In T-REx HEK293 cells, doxycycline-induced, compound overnight (18-24 hr), normalized to DMSO control; for Dmax: read-out: IKZF2 Dmax (maximum degradation at the highest concentration tested)
Procedure: In vitro degradation of IKZF1 and IKZF2 was measured using HiBiT protein tagging and detection technology (Promega).
HiBiT technology (Promega) was used to develop the quantitative assays to measure the cellular IKZFs level by tagging an 11 amino acid HiBit peptides VSGWRLFKKIS (SEQ ID NO:1) to the protein of interest. Reporter plasmids were generated by fusing a linker sequence (GSSGGSSG; SEQ ID NO:2) followed by the HiBiT tag at the C terminus of IKZF1 and IKZF2. The fusion fragments were subsequently cloned into pcDNA5 pcDNA™5/FRT/TO plasmids (Thermo Fisher, cat #V652020) downstream of the Tetracycline operator. The resulting plasmids were co-transfected with pOG44 Flp-Recombinase Expression Vector (Thermo Fisher, cat #V600520) into Flp-In™ T-REx HEK293 line (Thermo Fisher, cat #R78077) and a stable cell pool was selected by adding 100 μg/ml of Hygromycin (Thermo Fisher, cat #10687010). The reporter cell enabled Tet-On inducible reporter expression from a single copy of the integrated gene.
On Day 1, Cells were grown to ˜80% confluency in TC medium (DMEM Glutamax (Gibco10569), 10% Tet free FBS (Takara 631106), and PenStrep Glutamin (Gibco 10378)) in tissue culture flasks. Doxycycline was then added to a final concentration of 1 μg/ml to induce reporter expression at 37° C. overnight.
On Day 2, 125 nL of serially-diluted solution of testing compounds were dispensed into 384-well white solid assay plates via ECHO acoustic liquid handler. Cells were lifted by 0.25% Trypsin (Gibco 25200) then pelleted by centrifugation (Beckman Avanti J-E) at 500×g for 5 min. Cell pellets were resuspended in TC medium at the concentration of 3e5/mL and 25 μL of cell suspension were added into each well of compound-spotted plates. The plates were returned to a 37° C. incubator overnight (18-24 hr).
On Day 3, assay plates were removed from the TC incubator and 25 μL of Nano-Glo lytic detection system (Promega, cat #N3030) was added to each well. Plates were incubated at r.t. for 3 min with shaking, and luminescence was read using an Envision reader (Perkin Elmer).
All raw data was normalized to DMSO control (final concentration: 0.5%) wells as POC and plotted out for EC50 and Dmax (Maximum degradation at the highest concentration tested in the assay).

T1 sequence (Q9UKS7 1-500 isoform Q9UKS7-2): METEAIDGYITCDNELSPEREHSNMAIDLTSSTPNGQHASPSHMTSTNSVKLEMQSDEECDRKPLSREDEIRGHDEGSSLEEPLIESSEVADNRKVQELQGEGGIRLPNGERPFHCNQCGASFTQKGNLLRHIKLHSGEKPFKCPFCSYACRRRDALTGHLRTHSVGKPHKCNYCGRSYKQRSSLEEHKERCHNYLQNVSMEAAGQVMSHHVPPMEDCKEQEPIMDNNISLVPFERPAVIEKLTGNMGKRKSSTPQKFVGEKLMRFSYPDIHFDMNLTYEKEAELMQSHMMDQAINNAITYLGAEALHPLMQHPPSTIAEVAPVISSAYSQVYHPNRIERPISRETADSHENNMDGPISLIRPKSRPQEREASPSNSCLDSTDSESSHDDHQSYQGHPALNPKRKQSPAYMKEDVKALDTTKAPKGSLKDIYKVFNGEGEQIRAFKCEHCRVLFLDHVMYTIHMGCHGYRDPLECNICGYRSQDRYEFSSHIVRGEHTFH
T1 sequence (Q96SW2 whole entry): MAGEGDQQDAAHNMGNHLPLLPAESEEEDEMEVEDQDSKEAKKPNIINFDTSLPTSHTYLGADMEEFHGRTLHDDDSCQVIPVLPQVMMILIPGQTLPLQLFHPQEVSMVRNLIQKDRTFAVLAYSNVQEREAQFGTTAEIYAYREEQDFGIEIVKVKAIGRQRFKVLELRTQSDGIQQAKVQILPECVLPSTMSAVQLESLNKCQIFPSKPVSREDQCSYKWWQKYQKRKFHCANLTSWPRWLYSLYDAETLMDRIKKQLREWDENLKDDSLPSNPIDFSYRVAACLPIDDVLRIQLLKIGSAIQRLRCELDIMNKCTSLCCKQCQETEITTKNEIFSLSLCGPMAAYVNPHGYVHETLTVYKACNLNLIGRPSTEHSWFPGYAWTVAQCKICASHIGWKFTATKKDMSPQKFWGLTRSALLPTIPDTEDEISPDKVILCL
T1 sequence (Q16531 whole entry partner): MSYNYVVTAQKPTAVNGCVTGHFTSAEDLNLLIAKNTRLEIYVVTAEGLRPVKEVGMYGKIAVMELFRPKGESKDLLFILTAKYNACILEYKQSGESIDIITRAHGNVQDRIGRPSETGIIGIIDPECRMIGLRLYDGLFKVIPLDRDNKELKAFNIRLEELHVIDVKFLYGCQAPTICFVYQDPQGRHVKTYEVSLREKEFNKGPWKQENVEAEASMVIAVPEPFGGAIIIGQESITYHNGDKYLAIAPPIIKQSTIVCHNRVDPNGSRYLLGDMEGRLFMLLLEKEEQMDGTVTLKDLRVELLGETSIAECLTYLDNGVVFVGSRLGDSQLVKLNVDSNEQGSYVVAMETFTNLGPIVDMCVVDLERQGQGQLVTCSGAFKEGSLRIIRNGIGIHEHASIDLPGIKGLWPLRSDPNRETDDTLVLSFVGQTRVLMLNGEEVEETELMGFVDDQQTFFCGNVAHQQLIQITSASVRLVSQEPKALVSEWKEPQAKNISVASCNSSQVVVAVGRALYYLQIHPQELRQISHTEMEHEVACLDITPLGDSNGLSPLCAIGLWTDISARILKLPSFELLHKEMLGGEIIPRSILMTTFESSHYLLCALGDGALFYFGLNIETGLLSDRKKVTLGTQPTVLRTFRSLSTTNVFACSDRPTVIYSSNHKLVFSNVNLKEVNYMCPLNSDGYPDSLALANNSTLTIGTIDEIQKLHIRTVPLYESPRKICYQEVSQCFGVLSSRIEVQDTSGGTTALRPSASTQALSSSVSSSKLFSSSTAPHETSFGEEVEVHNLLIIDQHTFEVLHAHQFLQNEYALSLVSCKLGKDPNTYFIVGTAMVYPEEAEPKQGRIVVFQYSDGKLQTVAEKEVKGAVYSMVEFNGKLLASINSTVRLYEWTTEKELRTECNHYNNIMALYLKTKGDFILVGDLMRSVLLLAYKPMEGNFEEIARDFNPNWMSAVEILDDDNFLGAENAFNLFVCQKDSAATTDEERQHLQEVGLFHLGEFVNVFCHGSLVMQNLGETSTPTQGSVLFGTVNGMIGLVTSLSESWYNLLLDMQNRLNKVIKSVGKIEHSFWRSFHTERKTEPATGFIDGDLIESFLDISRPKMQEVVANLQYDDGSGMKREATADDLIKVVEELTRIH

Dmax | SMILES | IKZF2 Dmax (maximum degradation at the highest concentration tested)
94% | O=C1CCC(N2Cc3cc(OC4CN(Cc5ccccc5)CCC4NCc4ccccc4)ccc3C2=O)C(=O)N1 (racemic) [Example 2] | –
34% | CC(C)N[C@H]1CCN(Cc2ccn(C)n2)C[C@@H]1Oc1ccc2c(c1)CN(C1CCC(=O)NC1=O)C2=O (stereo partly shown) [Example 66] | –
69% | CC(=O)NC1CCN(Cc2ccccc2)CC1Oc1ccc2c(c1)CN(C1CCC(=O)NC1=O)C2=O (stereo not drawn) [Example 48, N-((3,4-trans)-1-benzyl-3-((2-(2,6-dioxopiperidin-3-yl)-1-oxoisoindolin-5-yl)oxy)piperidin-4-yl)acetamide] | –
– | O=C1CCC(N2Cc3cc(O[C@@H]4CN(Cc5ccccc5)CC[C@H]4NCC(F)(F)F)ccc3C2=O)C(=O)N1 (relative stereo) [Example 45, 3-(5-(((3,4-trans)-1-benzyl-4-((2,2,2-trifluoroethyl)amino)piperidin-3-yl)oxy)-1-oxoisoindolin-2-yl)piperidine-2,6-dione] | 44%
86% | O=C1CCC(N2Cc3cc(O[C@H]4CN(Cc5cccc(F)c5F)CC[C@@H]4NCc4ccccc4)ccc3C2=O)C(=O)N1 (mixture of isomers) [Example 20] | –
92% | O=C1CCC(N2Cc3cc(O[C@H]4CN(Cc5ccc(F)cc5F)CC[C@@H]4NCc4ccccc4)ccc3C2=O)C(=O)N1 (mixture of isomers) [Example 21] | –
90% | CCN(CC)C1CCN(Cc2ccccc2)CC1Oc1ccc2c(c1)CN(C1CCC(=O)NC1=O)C2=O (racemic) [Example 11] | –
95% | O=C1CCC(N2Cc3cc(O[C@H]4CN(Cc5ccc(Cl)cc5)CC[C@@H]4NCc4ccccc4)ccc3C2=O)C(=O)N1 (mixture of isomers) [Example 30] | –
97% | O=C1CCC(N2Cc3cc(O[C@H]4CN(Cc5ccccc5)CC[C@@H]4NCc4ccccc4)ccc3C2=O)C(=O)N1 (stereo partly shown) [Example 2a] | –
74% | CC(C)N[C@H]1CCN(Cc2cnccn2)C[C@@H]1Oc1ccc2c(c1)CN(C1CCC(=O)NC1=O)C2=O (stereo partly shown) [Example 68] | –
64% | O=C1CCC(N2Cc3cc(OC4CN(Cc5ccccn5)CCC4NCc4ccccc4)ccc3C2=O)C(=O)N1 (racemic) [Example 8] | –
62% | CS(=O)(=O)NC1CCN(Cc2ccccc2)CC1Oc1ccc2c(c1)CN(C1CCC(=O)NC1=O)C2=O (stereo not drawn) [Example 47, N-((3,4-trans)-1-benzyl-3-((2-(2,6-dioxopiperidin-3-yl)-1-oxoisoindolin-5-yl)oxy)piperidin-4-yl)methanesulfonamide] | –
88% | O=C1CCC(N2Cc3cc(O[C@H]4CN(Cc5ccccc5)CC[C@@H]4NCc4cccc(F)c4)ccc3C2=O)C(=O)N1 (mixture of isomers) [Example 29] | –
73% | O=C1CCC(N2Cc3cc(OC4CN(Cc5ccccc5)CCC4NCc4ccncc4)ccc3C2=O)C(=O)N1 (racemic) [Example 15] | –
84% | O=C1CCC(N2Cc3cc(OC4CN(Cc5ccccc5)CCC4NCc4ccccn4)ccc3C2=O)C(=O)N1 (racemic) [Example 13] | –
98% | CCN(CC)C1CCN(Cc2ccc3ccccc3c2)CC1Oc1ccc2c(c1)CN(C1CCC(=O)NC1=O)C2=O (racemic) [Example 57] | –
96% | CCOC1CN(C2CCN(Cc3ccccc3)CC2Oc2ccc3c(c2)CN(C2CCC(=O)NC2=O)C3=O)C1 (racemic) [Example 58] | –
82% | O=C1CCC(N2Cc3cc(OC4CN(Cc5ccccc5)CCC4N(C4CC4)C4CC4)ccc3C2=O)C(=O)N1 (racemic) [Example 61] | –
98% | CC(C)NC1CCN(Cc2ccccc2)CC1Oc1ccc2c(c1)CN(C1CCC(=O)NC1=O)C2=O (racemic) [Example 36] | –

Dmax | SMILES | IKZF2 Dmax (maximum degradation at the highest concentration tested)
– | O=C1CCC(N2Cc3cc(O[C@@H]4CN(Cc5ccccc5)CC[C@H]4NC(=O)NCc4ccccc4)ccc3C2=O)C(=O)N1 (relative stereo) [Example 55, 1-benzyl-3-((3,4-trans)-1-benzyl-3-((2-(2,6-dioxopiperidin-3-yl)-1-oxoisoindolin-5-yl)oxy)piperidin-4-yl)urea] | 91%
98% | O=C1CCC(N2Cc3cc(OC4CN(Cc5ccccc5)CCC4NCCc4ccccc4)ccc3C2=O)C(=O)N1 (racemic) [Example 35] | –
57% | O=C1CCC(N2Cc3cc(O[C@@H]4CN(C5CC5)CC[C@H]4NCc4ccccc4)ccc3C2=O)C(=O)N1 (mixture of isomers) [Example 16] | –
94% | O=C1CCC(N2Cc3cc(OC4CN(Cc5ccccc5)CCC4NC4CC4)ccc3C2=O)C(=O)N1 (racemic) [Example 63] | –
69% | O=C1CCC(N2Cc3cc(OC4CN(CC(F)F)CCC4NCc4ccccc4)ccc3C2=O)C(=O)N1 (stereo not drawn) [Example 49, 3-(5-(((3,4-trans)-4-(benzylamino)-1-(2,2-difluoroethyl)piperidin-3-yl)oxy)-1-oxoisoindolin-2-yl)piperidine-2,6-dione] | –
88% | O=C1CCC(N2Cc3cc(O[C@H]4CN(Cc5cc(F)ccc5F)CC[C@@H]4NCc4ccccc4)ccc3C2=O)C(=O)N1 (mixture of isomers) [Example 23] | –
103% | CC(C)N[C@H]1CCN(Cc2nccs2)C[C@@H]1Oc1ccc2c(c1)CN(C1CCC(=O)NC1=O)C2=O (stereo partly shown) [Example 62] | –
79% | O=C1CCC(N2Cc3cc(OC4CN(Cc5ccccc5)CCC4NC(=O)c4ccccc4)ccc3C2=O)C(=O)N1 (stereo not drawn) [Example 44, N-((3,4-trans)-1-benzyl-3-((2-(2,6-dioxopiperidin-3-yl)-1-oxoisoindolin-5-yl)oxy)piperidin-4-yl)benzamide] | –
98% | N[C@H]1CCN(Cc2ccccc2)C[C@@H]1Oc1ccc2c(c1)CN(C1CCC(=O)NC1=O)C2=O (stereo partly shown) [Example 42a] | –
90% | O=C1CCC(N2Cc3cc(O[C@H]4CN(Cc5ccccc5)CC[C@@H]4NCc4ccccc4F)ccc3C2=O)C(=O)N1 (mixture of isomers) [Example 28] | –
64% | CC(C)N[C@H]1CCN(Cc2ncco2)C[C@@H]1Oc1ccc2c(c1)CN(C1CCC(=O)NC1=O)C2=O (stereo partly shown) [Example 67] | –
99% | CCN(CC)[C@H]1CCN(Cc2ccc(F)cc2)C[C@@H]1Oc1ccc2c(c1)CN(C1CCC(=O)NC1=O)C2=O (stereo partly shown) [Example 65] | –
97% | CCNC1CCN(Cc2ccccc2)CC1Oc1ccc2c(c1)CN(C1CCC(=O)NC1=O)C2=O (racemic) [Example 12] | –
91% | O=C1CCC(N2Cc3cc(O[C@H]4CN(Cc5ccccc5F)CC[C@@H]4NCc4ccccc4)ccc3C2=O)C(=O)N1 (mixture of isomers) [Example 17] | –
71% | C[C@@H](c1ccccc1)N1CC[C@H](NCc2ccccc2)[C@@H](Oc2ccc3c(c2)CN(C2CCC(=O)NC2=O)C3=O)C1 (mixture of isomers) [Example 50] | –
91% | O=C1CCC(N2Cc3cc(OC4CN(Cc5ccccc5)CCC4NCc4cccnc4)ccc3C2=O)C(=O)N1 (racemic) [Example 14] | –
77% | O=C1CCC(N2Cc3cc(O[C@H]4CN(CCF)CC[C@@H]4NCc4ccccc4)ccc3C2=O)C(=O)N1 (mixture of isomers) [Example 53] | –
35% | CC(C)CN1CCC(NCc2ccccc2)C(Oc2ccc3c(c2)CN(C2CCC(=O)NC2=O)C3=O)C1 (racemic) [Example 6] | –
93% | O=C1CCC(N2Cc3cc(O[C@H]4CN(Cc5c(F)cccc5F)CC[C@@H]4NCc4ccccc4)ccc3C2=O)C(=O)N1 (mixture of isomers) [Example 24] | –

SMILES | Dmax | IKZF2 Dmax (maximum degradation at the highest concentration tested)
N#Cc1ccc(CN2CC[C@H](NCc3ccccc3)[C@@H](Oc3ccc4c(c3)CN(C3CCC(=O)NC3=O)C4=O)C2)cc1 (mixture of isomers) [Example 32] | 94% | –
O=C1CCC(N2Cc3cc(O[C@H]4CN(Cc5ccc(F)c(F)c5)CC[C@@H]4NCc4ccccc4)ccc3C2=O)C(=O)N1 (mixture of isomers) [Example 22] | 90% | –

Source: US12122764B2, “IKAROS zinc finger family degraders and uses thereof” (Gilead Sciences, Inc., priority 2021, dated 2024)
